# Measured values taken from patent US20180237441A1, “Chemical Compounds” (GlaxoSmithKline Intellectual Property (No.2) Limited, priority 2015, published 2018).
# Target: T1, PERK (Homo sapiens, UniProt Q9NZJ5)
# T1 sequence (Q9NZJ5 30-1116): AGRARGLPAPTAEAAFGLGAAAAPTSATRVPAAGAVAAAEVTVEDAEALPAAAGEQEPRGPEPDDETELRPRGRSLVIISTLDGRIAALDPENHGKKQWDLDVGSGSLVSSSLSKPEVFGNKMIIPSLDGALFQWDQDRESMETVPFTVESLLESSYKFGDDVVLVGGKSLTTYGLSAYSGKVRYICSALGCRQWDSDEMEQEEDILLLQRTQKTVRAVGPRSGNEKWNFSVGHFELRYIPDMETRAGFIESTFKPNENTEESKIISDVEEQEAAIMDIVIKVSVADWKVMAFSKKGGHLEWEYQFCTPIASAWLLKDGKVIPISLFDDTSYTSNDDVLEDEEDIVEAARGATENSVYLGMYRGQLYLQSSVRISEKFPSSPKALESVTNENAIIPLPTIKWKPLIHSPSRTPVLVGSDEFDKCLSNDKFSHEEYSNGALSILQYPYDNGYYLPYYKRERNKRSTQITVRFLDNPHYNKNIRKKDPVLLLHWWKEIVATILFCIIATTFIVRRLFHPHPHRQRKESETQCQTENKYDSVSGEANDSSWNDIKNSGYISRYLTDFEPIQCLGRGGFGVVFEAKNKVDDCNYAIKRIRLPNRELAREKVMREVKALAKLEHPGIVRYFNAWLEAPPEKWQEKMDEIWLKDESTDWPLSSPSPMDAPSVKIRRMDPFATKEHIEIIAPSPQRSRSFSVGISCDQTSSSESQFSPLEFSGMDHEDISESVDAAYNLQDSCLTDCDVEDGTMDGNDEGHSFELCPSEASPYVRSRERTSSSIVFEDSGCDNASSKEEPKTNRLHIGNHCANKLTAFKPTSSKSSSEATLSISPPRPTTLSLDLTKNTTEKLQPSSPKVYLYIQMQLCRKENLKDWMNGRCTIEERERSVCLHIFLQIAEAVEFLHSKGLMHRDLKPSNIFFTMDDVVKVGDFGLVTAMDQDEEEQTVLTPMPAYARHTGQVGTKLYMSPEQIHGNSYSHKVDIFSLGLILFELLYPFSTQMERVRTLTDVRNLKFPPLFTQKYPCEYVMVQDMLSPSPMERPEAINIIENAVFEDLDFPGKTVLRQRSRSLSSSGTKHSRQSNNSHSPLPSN
# Assay: PERK enzyme assay (HTRF)
# Format: biochemical
# Conditions: PERK Enzyme (500 μM ATP) IC50; at least one experimental run; read-out: PERK Activity
# In short: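 GST-PERK (0.75 nM final) pre-incubated 30–60 min with compound (≤1% DMSO) in HEPES pH 7.5/CHAPS/MgCl2/DTT, then 500 μM ATP and 40 nM biotin-eIF2α added for 60 min. EDTA quench; HTRF detection of phospho-eIF2α (Eu anti-rabbit/streptavidin-APC) read after 2 h; IC50 from concentration series.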
row,IC50 [µM],SMILES
1,< 0.1,"CN1C(=O)N(c2ccc(-c3cn(C)c4ncnc(N)c34)c(F)c2)CC1c1ccc2c(c1)CCO2 (stereo not drawn) [Example 147, 1-(4-(4-amino-7-methyl-7H-pyrrolo[2,3-d]pyrimidin-5-yl)-3-fluorophenyl)-4-(2,3-dihydrobenzofuran-5-yl)-3-methylimidazolidin-2-one]"
2,> 1,"Cc1nc(N)c2c(-c3ccc(N4CC(c5ccc(F)cc5F)N(C)C4=O)cc3F)nn(C)c2n1 (single isomer, unassigned) [Example 13, 1-(4-(4-amino-1,6-dimethyl-1H-pyrazolo[3,4-d]pyrimidin-3-yl)-3-fluorophenyl)-4-(2,4-difluorophenyl)-3-methylimidazolidin-2-one]"
3,> 1,"CN1C(=O)N(c2ccc(-c3cn(C)c4ncnc(N)c34)c(F)c2)CC1c1ccc(F)cc1F (single isomer, unassigned) [Example 47, 1-(4-(4-amino-7-methyl-7H-pyrrolo[2,3-d]pyrimidin-5-yl)-3-fluorophenyl)-4-(2,4-difluorophenyl)-3-methylimidazolidin-2-one]"
4,< 0.1,"CN1C(=O)N(c2ccc(-c3cn(C)c4ncnc(N)c34)c(F)c2)CC1c1cc(F)cc(Cl)c1 (single isomer, unassigned) [Example 51, 1-(4-(4-amino-7-methyl-7H-pyrrolo[2,3-d]pyrimidin-5-yl)-3-fluorophenyl)-4-(3-chloro-5-fluorophenyl)-3-methylimidazolidin-2-one]"
5,0.1 to 1,"Cc1nc(N)c2c(-c3ccc(N4CC(C5CCCCC5)N(C)C4=O)cc3F)cn(C)c2n1 (single isomer, unassigned) [Example 61, 1-(4-(4-amino-2,7-dimethyl-7H-pyrrolo[2,3-d]pyrimidin-5-yl)-3-fluorophenyl)-4-cyclohexyl-3-methylimidazolidin-2-one]"
6,< 0.1,"CCN1C(=O)N(c2ccc(-c3cn(C)c4nc(C)nc(N)c34)c(F)c2)CC1c1cc(F)ccc1F (single isomer, unassigned) [Example 54, 1-(4-(4-amino-2,7-dimethyl-7H-pyrrolo[2,3-d]pyrimidin-5-yl)-3-fluorophenyl)-4-(2,5-difluorophenyl)-3-ethylimidazolidin-2-one]"
7,< 0.1,"Cn1cc(-c2ccc(N3CC(c4ccc(F)cc4F)N(CC(F)(F)F)C3=O)cc2F)c2c(N)ncnc21 (stereo not drawn) [Example 79, 1-(4-(4-amino-7-methyl-7H-pyrrolo[2,3-d]pyrimidin-5-yl)-3-fluorophenyl)-4-(2,4-difluorophenyl)-3-(2,2,2-trifluoroethyl)imidazolidin-2-one]"
8,0.1 to 1,"CN1C(=O)N(c2ccc(-c3cn(C)c4ncnc(N)c34)c(F)c2)CC1c1cc(F)cc(Cl)c1 (stereo not drawn) [Example 16, 1-(4-(4-amino-7-methyl-7H-pyrrolo[2,3-d]pyrimidin-5-yl)-3-fluorophenyl)-4-(3-chloro-5-fluorophenyl)-3-methylimidazolidin-2-one]"
9,0.1 to 1,"CN1C(=O)N(c2ccc(-c3cn(C)c4ncnc(N)c34)c(F)c2)CC1c1cc(F)c(F)cc1F (single isomer, unassigned) [Example 159, 1-(4-(4-amino-7-methyl-7H-pyrrolo[2,3-d]pyrimidin-5-yl)-3-fluorophenyl)-3-methyl-4-(2,4,5-trifluorophenyl)imidazolidin-2-one]"
10,0.1 to 1,"CCN1C(=O)N(c2ccc(-c3cn(C4CC4)c4ncnc(N)c34)c(F)c2)CC1c1cc(F)ccc1F (single isomer, unassigned) [Example 123, 1-(4-(4-amino-7-cyclopropyl-7H-pyrrolo[2,3-d]pyrimidin-5-yl)-3-fluorophenyl)-4-(2,5-difluorophenyl)-3-ethylimidazolidin-2-one]"
11,< 0.1,"CN1C(=O)N(c2ccc(-c3cn(C4CC4)c4ncnc(N)c34)c(F)c2)CC1c1ccc(F)cc1F (single isomer, unassigned) [Example 155, 1-(4-(4-amino-7-cyclopropyl-7H-pyrrolo[2,3-d]pyrimidin-5-yl)-3-fluorophenyl)-4-(2,4-difluorophenyl)-3-methylimidazolidin-2-one]"
12,0.1 to 1,"Cc1nc(N)c2c(-c3ccc(N4CC(c5c(F)cc(F)cc5F)N(C)C4=O)cc3F)cn(C)c2n1 (single isomer, unassigned) [Example 71, 1-(4-(4-amino-2,7-dimethyl-7H-pyrrolo[2,3-d]pyrimidin-5-yl)-3-fluorophenyl)-3-methyl-4-(2,4,6-trifluorophenyl)imidazolidin-2-one]"
13,0.1 to 1,"CN1C(=O)N(c2ccc(-c3cn(C)c4ncnc(N)c34)c(F)c2)CC1c1cc(F)ccc1F (stereo not drawn) [Example 18, 1-(4-(4-amino-7-methyl-7H-pyrrolo[2,3-d]pyrimidin-5-yl)-3-fluorophenyl)-4-(2,5-difluorophenyl)-3-methylimidazolidin-2-one]"
14,< 0.1,"CN1C(=O)N(c2ccc(-c3cn(C4CC4)c4ncnc(N)c34)c(F)c2)CC1c1ccc(Cl)cc1 (stereo not drawn) [Example 167, 1-(4-(4-amino-7-cyclopropyl-7H-pyrrolo[2,3-d]pyrimidin-5-yl)-3-fluorophenyl)-4-(4-chlorophenyl)-3-methylimidazolidin-2-one]"
15,0.1 to 1,"CN1C(=O)N(c2ccc(-c3cn(C)c4ncnc(N)c34)c(F)c2)CC1c1cccc(F)c1F (stereo not drawn) [Example 74, 1-(4-(4-amino-7-methyl-7H-pyrrolo[2,3-d]pyrimidin-5-yl)-3-fluorophenyl)-4-(2,3-difluorophenyl)-3-methylimidazolidin-2-one]"
16,0.1 to 1,"CN1C(=O)N(c2ccc(-c3cn(C)c4ncnc(N)c34)c(F)c2)CC1c1ccc(F)cc1F (stereo not drawn) [Example 24, 1-(4-(4-amino-7-methyl-7H-pyrrolo[2,3-d]pyrimidin-5-yl)-3-fluorophenyl)-4-(2,4-difluorophenyl)-3-methylimidazolidin-2-one]"
17,0.1 to 1,"CN1C(=O)N(c2ccc(-c3cn(CC(F)(F)F)c4ncnc(N)c34)c(F)c2)CC1c1ccc(F)cc1F (stereo not drawn) [Example 82, 1-(4-(4-amino-7-(2,2,2-trifluoroethyl)-7H-pyrrolo[2,3-d]pyrimidin-5-yl)-3-fluorophenyl)-4-(2,4-difluorophenyl)-3-methylimidazolidin-2-one]"
18,0.1 to 1,"CN1C(=O)N(c2ccc(-c3cn(C)c4ncnc(N)c34)c(F)c2)CC1c1cc(F)cc(F)c1 (single isomer, unassigned) [Example 101, 1-(4-(4-amino-7-methyl-7H-pyrrolo[2,3-d]pyrimidin-5-yl)-3-fluorophenyl)-4-(3,5-difluorophenyl)-3-methylimidazolidin-2-one]"
19,0.1 to 1,"CN1C(=O)N(c2ccc(-c3cn(C4CC4)c4ncnc(N)c34)c(F)c2)CC1c1ccc(F)c(F)c1 (single isomer, unassigned) [Example 117, 1-(4-(4-amino-7-cyclopropyl-7H-pyrrolo[2,3-d]pyrimidin-5-yl)-3-fluorophenyl)-4-(3,4-difluorophenyl)-3-methylimidazolidin-2-one]"
20,< 0.1,"CN1C(=O)N(c2ccc(-c3cn(C)c4ncnc(N)c34)c(F)c2)CC1c1cc(F)ccc1F (single isomer, unassigned) [Example 150, 1-(4-(4-amino-7-methyl-7H-pyrrolo[2,3-d]pyrimidin-5-yl)-3-fluorophenyl)-4-(2,5-difluorophenyl)-3-methylimidazolidin-2-one]"
21,0.1 to 1,"CCN1C(=O)N(c2ccc(-c3cn(C)c4ncnc(N)c34)c(F)c2)CC1c1cc(F)ccc1F (single isomer, unassigned) [Example 3, 1-(4-(4-amino-7-methyl-7H-pyrrolo[2,3-d]pyrimidin-5-yl)-3-fluorophenyl)-4-(2,5-difluorophenyl)-3-ethylimidazolidin-2-one]"
